Reference: article PMC11327230, “Scalability study on [^133La]LaCl3 production with a focus on potential clinical applications” (EJNMMI Radiopharmacy and Chemistry, 2024)

What was measured:
[1] = 200 MBq; ref Afshar-Oromieh et al. [2016]; cited from earlier work
[2] = Stability of ^133La-PSMA radioconjugates in human serum, by radio-TLC; type: in vitro ADME; conditions: for stability in serum: ^133La-radioconjugate, up to / after 24 h; for HS stability 1 h / HS stability 4 h / HS stability 24 h: human serum/PBS pH 7, 37 °C, tested thrice
Procedure: Apparent molar activity (AMA) was quantified by titration with the macropa chelator in combination with radio-TLC. 3–10 µL [^133La]LaCl3 (4–7 MBq, approximately 10 MBq at EOB) were added to a buffered solution (ammonium acetate 200 mM, pH 6, total volume 100 µL) containing different chelator concentrations: 0.20 µM, 0.40 µM, 0.80 µM and 1.60 µM. These solutions were mixed at 500 rpm for 15 min at room temperature. The formed [^133La]La-macropa complex was analyzed using silica gel coated aluminum plates and developed with 50 mM EDTA as eluent. While the free lanthanum runs to the front, the complex remains at the start.
To assess the serum stability of both radiolabeled compounds, 75 µL of the ^133La-PSMA radioconjugates, accounting for ca. 50 MBq ^133La, were added to 75 µL of PBS buffer pH 7 and 150 µL of human serum and mixed at 500 rpm for 24 h at 37 °C. Silica gel plates were spotted after 1 h, 4 h and 24 h to evaluate the evolution of the complex stability. Each ^133La-PSMA radioligand and its molar activity was tested thrice.

[3] = as above; type: in vitro ADME; conditions: after 24 h in human serum, radio-TLC (Fig. 11)

Row | Structure (SMILES) | effective dose [1] | stability in serum ([2]; molar activity not given) | HS stability 1 h ([2]; molar activity 40 GBq/µmol) | HS stability 1 h ([2]; molar activity 80 GBq/µmol) | HS stability 4 h ([2]; molar activity 40 GBq/µmol) | HS stability 4 h ([2]; molar activity 80 GBq/µmol) | HS stability 24 h ([2]; molar activity 40 GBq/µmol) | HS stability 24 h ([2]; molar activity 80 GBq/µmol) | stability in serum ([2]; molar activity not stated in the sentence) | stability in serum ([2]; molar activity not stated in the sentence, listed as mcp-M-PSMA) | free [^133Ba]Ba^2+ as share of the total radioactivity [3]
1 | O=C([O-])CN(CCN(CC(=O)[O-])Cc1cc(CCC(=O)NCCCCCC(=O)NCCCC[C@H](NC(=O)N[C@@H](CCC(=O)O)C(=O)O)C(=O)O)ccc1[O-])Cc1cc(CCC(=O)O)ccc1[O-].[68Ga+3].[OH3+] [[^68Ga]Ga-PSMA-11] | 4.7 mSv |  |  |  |  |  |  |  |  |  | 
2 | O=C(O)CC[C@H](NC(=O)N[C@@H](CCCCNC(=O)[C@H](Cc1ccc2ccccc2c1)NC(=O)[C@H]1CC[C@H](CNC(=O)CN2CCN(CC(=O)O)CCN(CC(=O)O)CCN(CC(=O)O)CC2)CC1)C(=O)O)C(=O)O [[^133La]La-PSMA-617] |  | > 98.5 ± 0.3% | 99.37 ± 0.12% | 99.57 ± 0.12% | 99.40 ± 0.01% | 99.60 ± 0.08% | 97.37 ± 0.17% | 98.5 ± 0.3% |  |  | 
3 | O=C(O)CCC(NC(=O)NC(CCCCNC(=O)C(Cc1ccc2ccccc2c1)NC(=O)C1CCC(CNC(=O)CCCCn2cc(COc3cc(CN4CCOCCOCCN(Cc5cccc(C(=O)O)n5)CCOCCOCC4)nc(C(=O)O)c3)nn2)CC1)C(=O)O)C(=O)O (centres unmarked) [[^133La]La-mcp-M-PSMA] |  |  | 100 ± 0% | 99.80 ± 0.01% | 100 ± 0% | 99.83 ± 0.08% | 99.57 ± 0.25% | 99.20 ± 0.08% | > 99% | > 99.20 ± 0.08% | 
4 | [133La+3].[Cl-].[Cl-].[Cl-] [[^133La]LaCl3] |  |  |  |  |  |  |  |  |  |  | 1.1%
